Read-outs that look alike come from different tables or passages of the source.
Tests used:
[1] = system: LOX human melanoma cell adhesion to human fibronectin; test: LOX melanoma cell adhesion to fibronectin; assay type: cell-based; conditions: for IC50 / inhibition at 10 µM / inhibition at 50 µM: Homo sapiens, LOX; for IC50: read-out: LOX FN IC50; for inhibition at 10 µM: read-out: % Inhibition at 10 μM; for inhibition at 50 µM: read-out: % Inhibition at 50 μM
Method: (§1) Adhesion assays were run essentially as described previously (Pai et al., J. Biomed. Res. 2: 53, 1992). 96-well plates were coated with human fibronectin (140 ng/well), human vitronectin (75 ng/well), human collagen I (100 ng/well), human collagen IV (100 ng/well), human fibrinogen (1 μg/well), murine laminin (600 ng/well), or polylysine, and incubated overnight in a humidified 37° C. incubator. Excess fibronectin or other substrate was then removed and 0.2 ml of 2 mg/ml bovine serum albumin (BSA)in Dulbecco's phosphate-buffered saline (DPBS) was added to each well, incubated for 2 hours at 37° C., and removed. LOX human melanoma cells, M27 murine lung carcinoma cells or B16F10 mouse melanoma cells were detached from tissue culture flasks with RPMI medium containing 0.2M urea and 10 mM EDTA, and 0.18 ml of cells were added to each well to a final cell concentration of 1×10^5 cells/well. For inhibition studies 20 μl of 10× compound was added to the wells prior to cell addition. Cells were allowed to adhere for 1 hour at 37° C. The wells were then gently washed twice with 0.2 ml DPBS. The fluorescent dye calcein AM (Molecular Probes, Eugene Oreg.) in DPBS (0.1 ml of 1 μM) was added to each well, and the plates were incubated for 1 hour at room temperature. Adherent cells were quantitated by reading the fluorescence on a Cytofluor 2300 fluorescent plate reader (Millipore) at 485 nm excitation and 530 nm emission.
LOX FN-IC50 value for inhibition of adhesion of LOX human melanoma cells to fibronectin coated on a plastic surface.

[2] = system: LOX human melanoma cell adhesion to polylysine; test: LOX melanoma cell adhesion to polylysine; assay type: cell-based; conditions: read-out: Poly Lys IC50
Method: as §1

[3] = system: histamine-induced dyspnea; test: Bronchodilator (in vivo) Guinea Pig Dyspnea; conditions: oral, one hour before histamine challenge
Method: Unanesthetized guinea pigs (250-350 g), fasted overnight were placed in individual closed aerosol chambers which were connected to a Monoghan Ultrasonic nebulizer. The nebulizer can deliver an ultrasonic fog of uniform particles in a range of 1-8 microns. A 0.1% solution of histamine is aerosolized into the chambers causing the guinea pigs to develop dyspnea. The test drug was given orally one hour before the histamine challenge and the onset of dyspnea was recorded. Saline control animals developed dyspnea within 90-120 seconds of aerosol exposure. […] The data was expressed as the number tested over the number survived. The model was sensitive to bronchodilator and H1 antihistamine activity. Further information relating this test can be obtained from the following two publications which are hereby incorporated by reference: Dungan, K. W. and Lish, P. M. J Allergy 32:139-151 (1961). and Lish, P. M., Robbins, S. I. and Petres E. L. J. Pharmacol. Exp. Therap. 153 L 1538 (1966 ).

[4] = Calcein cytotoxicity assay; assay type: cell-based; conditions: human, lox melanoma cells, calcein AM assay; for CC50 at 2 h: read-out: 2 Hr Tox LD50
Method: LOX human melanoma cells were detached from tissue culture flasks with RPMI medium containing 0.2M urea and 10 mM EDTA, and 0.18 ml of cells were added to each well to a final cell concentration of 5×10^4 cells/well. 20 μl of 10× compound was added to the wells prior to cell addition. Cells were incubated with the compound at 37° C. for 1 hour or 5 hour as indicated. Calcein AM in DPBS (0.02 ml of 5 μM) was added to each well, and the plates were incubated for an additional 1 hour at room temperature. Viable cells were quantitated by reading the fluorescence on a Cytofluor 2300 fluorescent plate reader at 485 nm excitation and 530 nm emission.

ELAM-1 = ELAM-1 (Homo sapiens, UniProt P16581); test: cell-based
Sequence of ELAM-1 (P16581 22-610): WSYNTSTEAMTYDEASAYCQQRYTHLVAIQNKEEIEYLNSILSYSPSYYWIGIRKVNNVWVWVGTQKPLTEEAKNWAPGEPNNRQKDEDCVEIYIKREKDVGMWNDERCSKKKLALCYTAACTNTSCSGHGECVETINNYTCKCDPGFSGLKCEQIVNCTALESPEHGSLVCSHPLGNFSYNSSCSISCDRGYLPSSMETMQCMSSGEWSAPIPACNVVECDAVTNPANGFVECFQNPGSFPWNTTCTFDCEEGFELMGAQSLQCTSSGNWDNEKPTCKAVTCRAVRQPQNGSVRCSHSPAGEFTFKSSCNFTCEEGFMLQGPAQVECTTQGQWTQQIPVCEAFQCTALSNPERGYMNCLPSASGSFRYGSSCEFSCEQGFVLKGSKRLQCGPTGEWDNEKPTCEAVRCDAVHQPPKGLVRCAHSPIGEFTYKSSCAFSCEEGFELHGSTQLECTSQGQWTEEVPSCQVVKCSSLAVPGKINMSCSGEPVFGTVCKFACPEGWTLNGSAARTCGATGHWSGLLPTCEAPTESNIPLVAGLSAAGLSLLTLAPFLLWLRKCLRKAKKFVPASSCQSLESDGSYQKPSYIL
Method: Cell adhesion to ELAM-1 was measured essentially as described previously (Pal et al., J. Biomed. Res. 2: 53, 1992). Undifferentiated HL-60 leukemia cells were prelabelled for 30 minutes with 1 μM calcein AM in DPBS without calcium or magnesium, and the cells were washed twice with the same medium before addition to 96-well plates containing monolayers of mouse L cells (5×10^4 cells/well) transfected with cDNA for the adhesion molecule ELAM-1. Adhesion was allowed to proceed for 30 minutes at room temperature before washing and quantitation of the remaining fluorescent HL-60 cells as described above.
ELAM-1 (E-selectin) is a member of the selectin class of adhesion molecules.

[5] = system: acetic acid-induced writhing; test: Acetic Acid Writhing Test in Mice; assay type: in vivo, mouse; conditions: for ED50: Mus musculus, po, read-out: WRITH ED50
Description: The blockade of writhing induced by the intraperitoneal injection of acetic acid is an established experimental animal model for the screening of antinociceptive drugs (drugs which prevent the appreciation or transmission of pain sensations).
The procedure for the Acetic Acid Writhing Test in Mice is set forth in Hendershot et al, J. Pharmacol. Exp. Therap. 125:237, (1959); Koster et al., Fed. Proc. 18:412, (1959); and international application PCT/US91/06705, filed 20 Sep. 1991, which are hereby incorporated by reference.
The results for this test are given below in the units of mg/kg which is also abbreviated in this specification as mpk. The results for this test are given as effective doses (ED50 's).

TBZ-induced ptosis = test: Effects on tetrabenazine (TBZ)-induced ptosis in mice; assay type: in vivo, mouse; conditions: for ED50: Mus musculus, po; for TBZ ED50: p.o.
Description: Clinically active antidepressant drugs are known to block TBZ-induced ptosis in mice (See Psychosomatic Medicine, Nodine and Moyer, Eds. Lea and Febiger, Philadelphia, 1962, pp 683-90, which is hereby incorporated by reference). Activity in this test is used to predict anti-depressant activity in man.
The procedure for the TBZ-Induced Ptosis Test in Mice is set forth in Psychosomatic Medicine, Nodine and Moyer, Eds. Lea and Febiger, which is hereby incorporated by reference and in PCT/US91/06705, filed 20 Sep. 1991, which is mentioned above.
(§2) The results for this test are given below as ED50 's in the units of mg/kg.
TBZ refers to the test of effects on tetrabenazine induced ptosis in mice, p.o.;

pulmonary resistance = test: Pulmonary Resistance in the Anesthetized Rat; assay type: in vivo; conditions: 0.5 mpk, i.v., mean of 5 animals, % decrease in pre-drug baseline resistance; for inhibition in vivo at 0.5 mg/kg: Rattus norvegicus, iv, read-out: Pulmonary Resistance in Rats, % Inhibition
Method: Rats (400-500 g) anesthetized with dialurethane were surgically prepared with tracheal and esophageal catheters. These catheters were connected to pressure transducers for recording of air flow, tracheal and esophageal pressures. These pressures formed the basis for measurement of pulmonary resistance. Inhibition of pulmonary resistance is a reflection of bronchodilation.
All compounds were tested i. v. in 5 separate animals. All data are expressed in % decrease in the pre-drug baseline resistance and each number given is the mean of the 5 animals tested.
The model is sensitive to bronchodilator activity.
Further information relating this test can be obtained from the following publications which are hereby incorporated by reference: Comroe et al, J. Appl. Physio. 4:439-44 (1959); Dungan et al J. Pharmacol. Exp. Therap. 164:290-301(1968); and Mead, J. et al. J. Appl. Physio. 5:779-796 (1953).

methamphetamine toxicity = test: Methamphetamine toxicity test in mice; assay type: in vivo; conditions: Mus musculus, read-out: METHA ED50
Method: The methamphetamine toxicity test in mice was carried out as described in Burn et al, Arch. Int. Pharmacodyn 113:290-295, (1958); and Coscia et al, Arzneim-Forsch (Drug Research) 25:1436-1442, (1975); which are hereby incorporated by reference.
(§3) The results for this test are given below as ED50's in the units of mg/kg.
METHA refers to the methamphetamine toxicity test in mice;

[6] = system: muricidal (mouse-killing) behavior; test: Effects on muricidal behavior in rats; assay type: in vivo, rat; conditions: for ED50: Rattus norvegicus, read-out: MUR ED50
Description: Blockade of muricidal (mouse-killing) behavior in rats is used as a measure of evaluating the anti-depressant activity of drugs, and the procedure for carrying out this test is set forth in Int. J. Neuro-pharmacal., 5, 405-411 (1966) are hereby incorporated by reference, and in PCT/US91/06705, filed 20 Sep. 1991, which is mentioned above.
as §2
MUR refers to the test on the effects on muricidal behavior in rats;

metrazole = test: Anti-metrazole test in mice; assay type: in vivo, mouse; conditions: for ED50: Mus musculus, read-out: MTZ ED50
Method: The anti-metrazole test in mice was carried out as described in Everett et al, J. Pharmacol. Exp. Therap. 81:402-407 (1944); which is hereby incorporated by reference.
as §3

[7] = system: discrete trial avoidance behavior; test: Conditioned avoidance suppression in rats; assay type: in vivo, rat; conditions: for minimal effective dose: Rattus norvegicus, read-out: CAR minimum effective dose (MED)
Description: See Ann. N.Y. Acad. Sci. 66,740 (1957) which is hereby incorporated by reference. The procedure for carrying out this test is set forth in Int. J. Neuro-pharmacal., 5, 405-411 (1966) which is hereby incorporated by reference and in PCT/US91/06705, filed 20 Sep. 1991, which is mentioned above.
The results for this test are given below as minimum effecive doses (MED)in the units of mg/kg.
As used herein, CAR refers to the conditioned avoidance suppression test in rats;

[8] = system: B16-F10 murine melanoma metastasis; test: In vivo experimental metastasis; design: species or system mouse (C57/black6); conditions: 250 mpk
Method: C57/black6 female mice (6-7 weeks old) were randomized before any treatment into groups of 5 mice per treatment. Compounds of the invention were prepared as a fine suspension in 25% β-cyclodextran and administered i.p. in a volume of 0.2 ml per animal. Two hours after drug (or vehicle) injection, 0.2 ml of DPBS containing 1×10^5 B-16 F10 murine melanoma cells were injected i.v. into the tail vein. After 14 days, animals were sacrificed and lungs were removed. Metastatic lung colonies were counted by visual inspection.
*Pretreatment Time is the time between i.p. drug injection and i.v. tumor

[9] = Cavia porcellus, 1 h, 50 mg/kg, read-out: DYSP survivors (converted)

SMILES | IC50 [2] [µM] | CC50 at 2 h [4] [µM] | inhibition at 10 µM ([1]; 10 μM) [%] | inhibition at 50 µM ([1]; 50 μM) [%] | ED50 [5] [mg/kg] | responders at 50 mg/kg [3, 9] [%] | ED50 (TBZ-induced ptosis) [mg/kg] | inhibition in vivo at 0.5 mg/kg (pulmonary resistance) [%] | ED50 [6] [mg/kg] | ED50 (metrazole) [mg/kg] | minimal effective dose [7] [mg/kg] | other results
CN1C2CCC1C1C(=C(c3ccc(Cl)cc3)c3cc(F)ccc31)C2 (centres unmarked) [Compound A] | 11.8 | 17.4 |  |  |  |  |  |  |  |  |  | IC50 ([1]; 1 h): 4.8 µM; inhibition at 10 µM [1]: 81.1%; inhibition at 50 µM [1]: 101%; DYSP survivors ([3]; 100 mg/kg): 2/3; CC50 at 6 h ([4]; 6 hours, read-out: 6 Hr Tox LD50): 5.9 µM; IC50 (ELAM-1): 21.8 µM
CN1C2CCC1C1c3ccccc3C(O)(c3ccc(F)cc3)C1C2 (centres unmarked) [SS] | > 250 | > 250 | 10.1 | 17.3 | > 30 | 33.3 | > 30 | 22 | > 10 | > 30 |  | IC50 ([1]; Table 4, 1 hour adhesion): > 50 µM; responders at 100 mg/kg ([3]; Cavia porcellus, 1 h, 100 mg/kg, read-out: DYSP survivors (converted)): 100%; ED50 (methamphetamine toxicity): > 30 mg/kg
CN1C2CCC1C1C(=C(c3ccccc3)c3ccccc31)C2 (centres unmarked) [T] | 115 | 135 |  |  | 17.3 |  |  |  | > 10 | > 30 | > 25 | % Inhibition at 10 μM ([1]; 10 μM): 2.2%; % Inhibition at 50 μM ([1]; 50 μM): 89.3%; IC50 ([1]; Table 4, 1 hour adhesion): 19.5 µM; DYSP survivors ([3]; 50 mg/kg): 0/3; DYSP survivors ([3]; 100 mg/kg): 2/3; TBZ ED50 (TBZ-induced ptosis): 5.7 mg/kg; Pulmonary Resistance in Rats, % Inhibition (pulmonary resistance): 46%
COc1ccc2c(c1)C(O)(c1ccccc1)C1CC3CCC(C21)N3C (centres unmarked) [DDD] |  |  |  |  | > 30 |  | > 30 |  | 3.8 | > 30 | > 25 | 
COc1ccc2c(c1)C(c1ccccc1)C1=C2C2CCC(C1)N2C (centres unmarked) [EE] |  |  |  |  | > 30 |  | > 30 |  |  | > 30 | > 25 | 
CN1C2CCC1C1c3ccccc3C(O)(c3ccccc3)C1C2 (centres unmarked) [AAA] |  |  | 5.2 | 5.8 | > 30 | 0 | > 30 | 35 | > 10 | > 30 |  | ED50 (methamphetamine toxicity): > 30 mg/kg
O=P1(N(CCCl)CCCl)NCCCO1 (centres unmarked) [Cytoxan, reference compound] |  |  |  |  |  |  |  |  |  |  |  | effectiveness as positive control [8]: showed similar effectiveness; % Inhibition of lung metastasis ([8]; pretreatment time 30 min): 77.8%; Number of Lung Melanoma Colonies ([8]; pretreatment time 30 min): 17.6 ± 4.2
COc1ccc(C2(O)c3ccccc3C3C4CCC(CC32)N4C)cc1 (centres unmarked) [PP] |  |  | 4.9 | 21.9 | > 30 | 0 | > 30 | 62 | > 10 | > 30 | > 25 | 
CN1C2CCC1C1C(=C(c3ccccc3)c3ccccc31)C2 (centres unmarked) [U] |  |  |  |  |  |  |  |  |  |  |  | % Inhibition at 10 μM ([1]; 10 μM): -18.7%; % Inhibition at 50 μM ([1]; 50 μM): 21.0%; WRITH ED50 ([5]; p.o.): > 30 mg/kg; CAR minimum effective dose (MED) [7]: > 25 mg/kg; TBZ ED50 (TBZ-induced ptosis): 1.3 mg/kg; MUR ED50 [6]: 14.1 mg/kg; MTZ ED50 (metrazole): > 30 mg/kg

Source: patent US5461057A, “Hydro-ethano-indeno-pyridines” (priority 1994, dated 1995)
